Experimental data: patent US20080089844A1 (priority 2002, published 2008)
“Also recorded” adds a separate entry of the source. Where two headings read alike, the source gives them in different places.

How the values were obtained:
[1] = rat, in vivo, iv
[2] = tested on: isolated rabbit hearts
[3] = tested on: trout Shaker homolog (Sha1); conditions: cited from earlier work
[4] = target: Kv4.2 (Homo sapiens, UniProt Q9NZV8); conditions: cited from earlier work
[5] = target: Kv3.4 (Homo sapiens, UniProt Q03721); conditions: cited from earlier work
Chain of Kv3.4 (Q03721 whole entry, looked up): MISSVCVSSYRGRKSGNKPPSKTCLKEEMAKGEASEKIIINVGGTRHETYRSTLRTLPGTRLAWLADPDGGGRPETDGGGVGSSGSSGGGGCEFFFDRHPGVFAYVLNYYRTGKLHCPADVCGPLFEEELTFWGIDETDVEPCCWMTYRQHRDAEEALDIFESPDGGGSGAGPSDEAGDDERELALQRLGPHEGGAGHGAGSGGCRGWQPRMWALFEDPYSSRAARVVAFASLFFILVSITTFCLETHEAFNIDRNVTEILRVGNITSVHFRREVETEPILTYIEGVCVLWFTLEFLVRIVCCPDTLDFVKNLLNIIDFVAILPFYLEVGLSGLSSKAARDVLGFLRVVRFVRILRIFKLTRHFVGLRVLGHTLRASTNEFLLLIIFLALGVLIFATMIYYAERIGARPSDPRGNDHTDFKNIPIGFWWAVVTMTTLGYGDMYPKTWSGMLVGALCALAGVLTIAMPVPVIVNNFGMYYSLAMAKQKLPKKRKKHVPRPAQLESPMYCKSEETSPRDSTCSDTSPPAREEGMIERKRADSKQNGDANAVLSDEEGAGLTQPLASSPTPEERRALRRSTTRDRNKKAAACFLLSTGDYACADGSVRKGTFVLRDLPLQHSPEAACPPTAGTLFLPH

[6] = target: Kv1.3 (Homo sapiens, UniProt P22001); conditions: cited from earlier work
Chain of Kv1.3 (P22001 whole entry, looked up): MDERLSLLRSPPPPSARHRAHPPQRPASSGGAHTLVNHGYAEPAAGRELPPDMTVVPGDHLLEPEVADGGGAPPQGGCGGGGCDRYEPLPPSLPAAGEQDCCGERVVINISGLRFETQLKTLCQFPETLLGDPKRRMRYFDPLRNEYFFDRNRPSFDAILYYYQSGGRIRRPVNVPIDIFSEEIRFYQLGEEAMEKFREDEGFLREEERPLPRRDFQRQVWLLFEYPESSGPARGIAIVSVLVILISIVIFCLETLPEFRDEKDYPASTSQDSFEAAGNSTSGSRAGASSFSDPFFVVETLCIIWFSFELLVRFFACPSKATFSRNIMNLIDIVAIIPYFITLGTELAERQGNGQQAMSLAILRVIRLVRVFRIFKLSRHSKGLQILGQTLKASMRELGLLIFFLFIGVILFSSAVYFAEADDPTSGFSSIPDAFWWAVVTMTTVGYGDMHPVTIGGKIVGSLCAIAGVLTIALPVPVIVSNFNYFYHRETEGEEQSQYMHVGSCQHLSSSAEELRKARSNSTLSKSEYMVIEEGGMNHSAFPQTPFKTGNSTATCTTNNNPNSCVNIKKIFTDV

[7] = target: Kv1.1 (Homo sapiens, UniProt Q09470); conditions: cited from earlier work
[8] = target: Shaker potassium channel (Drosophila melanogaster, UniProt P08510); conditions: cited from earlier work
Chain of Shaker potassium channel (P08510 whole entry, looked up): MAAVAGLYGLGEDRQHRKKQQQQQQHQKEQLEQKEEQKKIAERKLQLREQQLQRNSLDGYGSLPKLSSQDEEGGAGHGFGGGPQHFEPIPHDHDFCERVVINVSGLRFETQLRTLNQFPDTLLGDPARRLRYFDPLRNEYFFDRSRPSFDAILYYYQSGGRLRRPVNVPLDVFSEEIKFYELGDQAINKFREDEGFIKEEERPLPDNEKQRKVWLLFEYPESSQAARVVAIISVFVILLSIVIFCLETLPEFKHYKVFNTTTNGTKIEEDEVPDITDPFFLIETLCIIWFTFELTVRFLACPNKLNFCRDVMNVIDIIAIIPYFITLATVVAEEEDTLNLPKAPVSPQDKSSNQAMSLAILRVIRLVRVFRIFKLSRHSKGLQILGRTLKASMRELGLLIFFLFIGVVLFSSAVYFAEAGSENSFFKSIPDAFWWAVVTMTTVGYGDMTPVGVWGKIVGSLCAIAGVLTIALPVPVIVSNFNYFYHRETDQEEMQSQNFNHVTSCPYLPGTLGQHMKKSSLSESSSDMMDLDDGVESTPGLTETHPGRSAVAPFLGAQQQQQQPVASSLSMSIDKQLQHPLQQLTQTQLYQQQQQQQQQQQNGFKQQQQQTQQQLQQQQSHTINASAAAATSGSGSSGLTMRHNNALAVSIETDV

[9] = tested on: ventricular myocyte, cortex and trachea primary cultures; format: cell-based, rat
[10] = target: F425G Shaker mutation (Drosophila melanogaster, UniProt P08510, F425G); conditions: cited from earlier work
Chain of F425G Shaker mutation (P08510 whole entry F425G, looked up): as the sequence (P08510 whole entry, looked up) above, with F425G counted along it

[11] = target: Kv2.1 (Homo sapiens, UniProt Q14721); conditions: cited from earlier work
Chain of Kv2.1 (Q14721 whole entry, looked up): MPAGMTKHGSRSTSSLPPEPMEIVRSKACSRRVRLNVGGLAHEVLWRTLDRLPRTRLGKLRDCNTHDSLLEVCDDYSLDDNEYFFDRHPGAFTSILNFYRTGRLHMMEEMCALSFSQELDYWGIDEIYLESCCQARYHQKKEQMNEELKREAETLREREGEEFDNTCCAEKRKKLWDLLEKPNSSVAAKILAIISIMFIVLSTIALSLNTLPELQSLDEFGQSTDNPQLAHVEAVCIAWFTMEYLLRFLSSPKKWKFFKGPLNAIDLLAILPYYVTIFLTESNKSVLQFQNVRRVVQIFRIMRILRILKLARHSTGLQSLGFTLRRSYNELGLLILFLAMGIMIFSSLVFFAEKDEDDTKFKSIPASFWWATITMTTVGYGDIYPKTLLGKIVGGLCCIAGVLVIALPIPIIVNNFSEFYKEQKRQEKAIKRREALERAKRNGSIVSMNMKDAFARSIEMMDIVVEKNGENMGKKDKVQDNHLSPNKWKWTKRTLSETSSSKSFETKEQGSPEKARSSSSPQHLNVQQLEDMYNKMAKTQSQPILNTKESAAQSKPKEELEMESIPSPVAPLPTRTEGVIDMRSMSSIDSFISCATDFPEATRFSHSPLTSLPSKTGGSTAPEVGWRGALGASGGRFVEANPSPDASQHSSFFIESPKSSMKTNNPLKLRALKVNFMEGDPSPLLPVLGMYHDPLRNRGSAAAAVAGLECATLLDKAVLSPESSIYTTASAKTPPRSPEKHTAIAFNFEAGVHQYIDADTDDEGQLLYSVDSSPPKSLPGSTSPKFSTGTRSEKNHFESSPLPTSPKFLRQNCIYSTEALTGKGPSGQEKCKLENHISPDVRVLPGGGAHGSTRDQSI

[12] = tested on: cardiac ventricular myocytes; format: cell-based, rat
[13] = target: Kv1.4 (Homo sapiens, UniProt P22459); conditions: cited from earlier work
Chain of Kv1.4 (P22459 whole entry, looked up): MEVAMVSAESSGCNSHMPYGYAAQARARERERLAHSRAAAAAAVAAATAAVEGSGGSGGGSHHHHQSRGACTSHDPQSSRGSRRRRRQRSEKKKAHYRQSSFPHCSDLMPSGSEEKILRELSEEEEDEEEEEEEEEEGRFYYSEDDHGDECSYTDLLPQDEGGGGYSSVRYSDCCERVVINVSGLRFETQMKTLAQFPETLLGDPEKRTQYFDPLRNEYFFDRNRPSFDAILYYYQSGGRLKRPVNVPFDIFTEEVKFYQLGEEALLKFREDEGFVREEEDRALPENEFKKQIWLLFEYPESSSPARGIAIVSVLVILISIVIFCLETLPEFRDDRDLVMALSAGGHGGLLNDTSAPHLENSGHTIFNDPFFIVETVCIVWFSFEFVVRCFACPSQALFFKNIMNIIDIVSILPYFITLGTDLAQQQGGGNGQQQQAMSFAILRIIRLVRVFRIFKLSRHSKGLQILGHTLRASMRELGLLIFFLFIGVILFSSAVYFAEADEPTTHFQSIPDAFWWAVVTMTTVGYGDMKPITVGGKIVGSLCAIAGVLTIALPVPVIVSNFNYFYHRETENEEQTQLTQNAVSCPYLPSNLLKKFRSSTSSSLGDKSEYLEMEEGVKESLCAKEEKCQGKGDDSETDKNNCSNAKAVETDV

[14] = tested on: primary cultures of myocytes; format: cell-based, rat
[15] = target: herg (Homo sapiens, UniProt Q12809); conditions: cited from earlier work
[16] = target: eag (Homo sapiens, UniProt O95259); conditions: cited from earlier work
Chain of eag (O95259 whole entry, looked up): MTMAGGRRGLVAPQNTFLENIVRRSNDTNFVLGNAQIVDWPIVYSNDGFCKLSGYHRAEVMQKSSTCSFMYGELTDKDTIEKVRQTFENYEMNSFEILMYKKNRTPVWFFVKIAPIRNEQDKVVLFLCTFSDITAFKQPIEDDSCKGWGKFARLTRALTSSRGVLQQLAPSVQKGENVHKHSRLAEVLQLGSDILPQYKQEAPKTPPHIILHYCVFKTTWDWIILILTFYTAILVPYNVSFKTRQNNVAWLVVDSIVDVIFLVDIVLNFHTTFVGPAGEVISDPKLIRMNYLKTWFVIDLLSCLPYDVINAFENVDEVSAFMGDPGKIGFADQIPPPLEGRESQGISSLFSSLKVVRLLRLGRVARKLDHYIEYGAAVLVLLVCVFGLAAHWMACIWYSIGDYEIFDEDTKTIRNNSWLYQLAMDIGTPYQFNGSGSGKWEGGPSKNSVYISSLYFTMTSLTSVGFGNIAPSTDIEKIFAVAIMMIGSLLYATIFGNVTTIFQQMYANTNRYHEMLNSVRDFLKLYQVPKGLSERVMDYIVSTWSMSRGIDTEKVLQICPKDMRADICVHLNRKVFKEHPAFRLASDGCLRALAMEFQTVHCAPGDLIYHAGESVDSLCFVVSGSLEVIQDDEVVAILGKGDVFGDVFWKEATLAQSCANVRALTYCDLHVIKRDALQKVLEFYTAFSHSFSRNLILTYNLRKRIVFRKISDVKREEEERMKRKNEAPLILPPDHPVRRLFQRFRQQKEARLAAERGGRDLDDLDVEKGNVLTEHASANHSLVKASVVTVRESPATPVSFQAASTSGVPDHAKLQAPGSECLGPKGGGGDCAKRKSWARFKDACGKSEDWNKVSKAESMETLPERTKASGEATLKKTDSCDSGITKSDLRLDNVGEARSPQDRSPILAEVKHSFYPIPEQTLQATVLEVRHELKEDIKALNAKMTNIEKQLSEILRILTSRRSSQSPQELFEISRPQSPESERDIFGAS

[17] = tested on: New Zealand White rabbits; conditions: rabbit, in vivo
[18] = target: Nav1.5 (Homo sapiens, UniProt Q14524); conditions: cited from earlier work
[19] = target: Nav1.2 (Homo sapiens, UniProt Q99250); conditions: cited from earlier work

Chain of Kv4.2 (Q9NZV8 whole entry, looked up): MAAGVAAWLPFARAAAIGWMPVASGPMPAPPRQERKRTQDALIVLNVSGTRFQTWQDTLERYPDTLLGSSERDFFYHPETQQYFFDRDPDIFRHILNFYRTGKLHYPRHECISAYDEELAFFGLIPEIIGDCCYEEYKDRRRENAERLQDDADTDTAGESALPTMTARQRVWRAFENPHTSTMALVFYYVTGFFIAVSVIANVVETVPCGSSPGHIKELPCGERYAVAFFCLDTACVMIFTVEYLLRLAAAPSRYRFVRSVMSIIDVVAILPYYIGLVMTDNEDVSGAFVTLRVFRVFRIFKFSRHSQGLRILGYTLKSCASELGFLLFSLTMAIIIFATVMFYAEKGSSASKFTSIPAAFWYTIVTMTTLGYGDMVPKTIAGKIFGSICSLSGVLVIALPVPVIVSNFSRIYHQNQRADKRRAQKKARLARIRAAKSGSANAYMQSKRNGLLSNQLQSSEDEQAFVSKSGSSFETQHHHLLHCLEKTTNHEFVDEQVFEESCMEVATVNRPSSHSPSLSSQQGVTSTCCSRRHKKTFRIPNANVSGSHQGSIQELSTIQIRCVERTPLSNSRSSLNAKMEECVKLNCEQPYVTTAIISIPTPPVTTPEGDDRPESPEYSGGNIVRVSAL

With “Leu-X2-Ser-Cys-Cys-Ser-Leu-Asn-Leu-X1-Leu-Cys-X2-Val-X2-Ala-Cys-X3-X1-Asn-X2-Cys-Cys-Thr [κM-RIIIK]” the “effect on blood pressure” value [1] was “no effect”, the “effect on heart rate” value [1] was “no effect” and the infarct size [2] was “reduces the infarct size”. For the same substance, the “state dependence of inhibition, open vs closed state affinity” value [3] was “three to four times lower affinity for the open state”, the IC50 ([3]; read-out: IC50 on Sha1, closed state) was 20 nM and the IC50 ([3]; read-out: IC50 on Sha1, open state) was 60 nM. For the same substance, the “activity on Kv4.2” value [4] was “no detectable activity”, the “activity on Kv3.4” value [5] was “no detectable activity” and the “activity on Kv1.3” value [6] was “no detectable activity”. The “activity on Kv1.1” value [7] was “no detectable activity”, the “state dependence of inhibition, open vs closed state affinity” value [8] was “three to four times lower affinity for the open state” and the IC50 ([8]; read-out: IC50, antagonist of the Shaker potassium channel) was roughly 1200 nM. For the same substance, the “protection against hypoxia-induced changes in intracellular calcium” value [9] was “able to provide protection against hypoxia”, the “effect of F425G Shaker mutation on κM-RIIIK sensitivity” value [10] was “decreases κM-RIIIK sensitivity” and the “activity on Kv2.1” value [11] was “no detectable activity”. For the same substance, the “protection against hypoxia-induced depolarization” value [12] was “prevents any hypoxia-induced changes in membrane potential; also recorded: strong protective effect; also recorded: confers protection against hypoxia-induced depolarization”, the “activity on Kv1.4” value [13] was “no detectable activity” and the “induction of glibenclamide-sensitive currents” value [14] was “induces glibenclamide-sensitive currents in primary cultures of myocytes in a highly potent manner”. The activity on herg [15] was “no detectable activity”, the activity on eag [16] was “no detectable activity” and the infarct size [17] was “reduces the infarct size”. For the same substance, the hemodynamic effect ([17]; iv) was “without any hemodynamic effect”, the “activity on Nav1.5” value [18] was “no detectable activity” and the “activity on Nav1.2” value [19] was “no detectable activity”.
